Measurements from PubChem BioAssay AID504628 (Vanderbilt High Throughput Screening Facility, 2011).

Target: Voltage-dependent T-type calcium channel subunit alpha-1H (Homo sapiens) (UniProt O95180)
Assay: Cav3.2 current block by patch clamp, late-stage follow-up, orthogonal assay for T-type calcium channel inhibitor project, HEK293 cells, whole-cell recording (AID 504628)
Conditions: HEK293-Cav3.2 whole-cell patch clamp, Ba2+ current; at 1 µM

Sequence of Voltage-dependent T-type calcium channel subunit alpha-1H (Homo sapiens) (O95180 whole entry, looked up): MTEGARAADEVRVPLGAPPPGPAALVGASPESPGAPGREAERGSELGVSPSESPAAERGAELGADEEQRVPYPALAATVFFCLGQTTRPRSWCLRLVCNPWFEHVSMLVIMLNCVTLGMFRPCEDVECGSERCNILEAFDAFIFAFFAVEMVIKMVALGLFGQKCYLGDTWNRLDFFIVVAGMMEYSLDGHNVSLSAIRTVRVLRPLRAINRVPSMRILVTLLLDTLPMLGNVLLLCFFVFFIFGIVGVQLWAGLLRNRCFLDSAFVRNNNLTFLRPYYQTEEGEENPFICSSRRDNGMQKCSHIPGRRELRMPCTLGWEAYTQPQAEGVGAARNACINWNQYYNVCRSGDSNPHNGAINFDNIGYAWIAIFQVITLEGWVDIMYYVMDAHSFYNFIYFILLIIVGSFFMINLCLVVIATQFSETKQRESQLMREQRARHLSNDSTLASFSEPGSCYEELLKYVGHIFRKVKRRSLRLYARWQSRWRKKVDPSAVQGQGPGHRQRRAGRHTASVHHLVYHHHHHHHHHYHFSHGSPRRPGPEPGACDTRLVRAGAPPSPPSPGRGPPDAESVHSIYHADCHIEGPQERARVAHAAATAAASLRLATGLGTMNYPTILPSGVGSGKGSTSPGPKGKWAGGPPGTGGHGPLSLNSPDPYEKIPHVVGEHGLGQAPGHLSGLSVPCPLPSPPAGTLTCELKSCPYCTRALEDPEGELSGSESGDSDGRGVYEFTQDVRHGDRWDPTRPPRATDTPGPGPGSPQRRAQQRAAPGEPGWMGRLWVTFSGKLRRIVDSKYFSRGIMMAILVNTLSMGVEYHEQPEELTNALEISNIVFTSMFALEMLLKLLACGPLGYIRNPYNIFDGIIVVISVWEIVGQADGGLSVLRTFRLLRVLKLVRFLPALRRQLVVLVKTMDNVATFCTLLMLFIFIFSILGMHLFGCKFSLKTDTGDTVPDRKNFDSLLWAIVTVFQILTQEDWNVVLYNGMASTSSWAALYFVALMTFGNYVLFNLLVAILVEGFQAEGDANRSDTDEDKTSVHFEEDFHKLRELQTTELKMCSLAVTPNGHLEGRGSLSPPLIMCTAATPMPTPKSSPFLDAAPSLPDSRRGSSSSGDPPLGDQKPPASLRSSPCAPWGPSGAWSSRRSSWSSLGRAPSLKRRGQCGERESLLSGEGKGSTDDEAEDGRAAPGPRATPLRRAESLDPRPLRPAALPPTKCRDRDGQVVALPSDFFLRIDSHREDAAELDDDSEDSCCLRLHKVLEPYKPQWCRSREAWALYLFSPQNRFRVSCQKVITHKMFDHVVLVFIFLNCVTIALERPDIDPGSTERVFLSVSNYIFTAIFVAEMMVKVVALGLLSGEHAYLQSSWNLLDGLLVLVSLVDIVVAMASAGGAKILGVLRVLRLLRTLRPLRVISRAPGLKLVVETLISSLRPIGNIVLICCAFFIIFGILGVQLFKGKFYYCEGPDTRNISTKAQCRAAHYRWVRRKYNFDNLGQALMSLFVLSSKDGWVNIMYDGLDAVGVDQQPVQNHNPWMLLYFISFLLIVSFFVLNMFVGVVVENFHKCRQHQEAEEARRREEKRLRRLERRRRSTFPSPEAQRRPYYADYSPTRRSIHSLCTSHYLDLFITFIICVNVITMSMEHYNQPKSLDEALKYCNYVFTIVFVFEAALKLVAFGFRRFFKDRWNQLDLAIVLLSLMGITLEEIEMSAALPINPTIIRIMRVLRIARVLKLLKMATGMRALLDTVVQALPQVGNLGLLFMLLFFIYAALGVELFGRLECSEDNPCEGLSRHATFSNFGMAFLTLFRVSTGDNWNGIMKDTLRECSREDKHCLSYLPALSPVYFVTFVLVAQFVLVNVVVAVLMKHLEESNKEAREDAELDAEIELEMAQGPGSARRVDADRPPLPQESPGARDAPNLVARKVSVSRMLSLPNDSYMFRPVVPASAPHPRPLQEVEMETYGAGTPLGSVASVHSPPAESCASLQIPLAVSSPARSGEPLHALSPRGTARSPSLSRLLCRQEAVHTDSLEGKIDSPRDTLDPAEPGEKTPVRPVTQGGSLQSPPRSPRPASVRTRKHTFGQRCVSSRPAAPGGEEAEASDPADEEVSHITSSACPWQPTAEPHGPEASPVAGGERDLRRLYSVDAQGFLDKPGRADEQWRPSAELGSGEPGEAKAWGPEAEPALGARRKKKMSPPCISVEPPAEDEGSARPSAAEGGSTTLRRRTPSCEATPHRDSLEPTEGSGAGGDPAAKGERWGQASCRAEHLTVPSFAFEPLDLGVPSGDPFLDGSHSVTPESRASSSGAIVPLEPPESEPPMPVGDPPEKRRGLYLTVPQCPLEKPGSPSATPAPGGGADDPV

CC(C)(C)CCN1C[C@@H]2C(CNC(=O)c3cc(Cl)cc(Cl)c3)[C@@H]2C1 (stereo partly specified)
current: -1010 pA
